# What was measured:
# Adnp+/- mice [1] = assay: Odor discrimination test; type: in vivo, mouse
# Procedure: (§1) Experiments were performed as previously described[8],[30],[40]. […] The behavioral assays were then initiated together with a continuous drug application. For detailed description of the object recognition test and the social approach task, please see supplemental materials and methods. In the odor discrimination test, odors were presented on a suspended cotton swab to the test mouse placed into the clean cage with fresh shavings. Each mouse was tested during three consecutive 2-min periods for each odor, with 2-min intervals between presentations. The time that the mouse smelled the swab was recorded (beginning whenever the animal oriented its nostrils toward the cotton swab, within 2 cm or less)[8],[30]. The hanging wire test measuring the strength of the mouse paws by using the latency to fall off an inverted cage lid (placed 50 cm above the surface) onto a soft bedding (maximum time 90 sec), was performed as previously described[5],[40]. Data are expressed as mean ± SEM.
# VGLUT1 = assay: Immunohistochemistry; type: in vivo, mouse; conditions: male Adnp+/- mice
# Procedure: Immunohistochemistry was carried out as previously described. Briefly, paraffin sections were deparaffinized, rehydrated in graded alcohols, and antigen retrieval was performed with citrate buffer pH 6. Endogenous peroxidase was blocked with 3% H2O2 in methanol and was followed by incubation in the appropriate blocking buffer for 30 min. Sections were incubated overnight at 4 °C with the primary antibodies against VGLUT1 (Santa Cruz Biotechnology, sc-13320). The secondary antibody used was Rabbit Anti-Goat IgG (EMD Millipore, AP106B). Immunoreactions were visualized with the aim of Avidin-Peroxidase (Sigma- Aldrich Chemical), and 3,3′-Diaminobenzidine (DAB, brown color, Sigma-Aldrich Chemical) was utilized as chromogen. Sections were then counterstained with hematoxylin (light blue color).
# Sections were further examined under optical microscope Zeiss Axioplan-2 with the aid of a CCD camera (Nikon DS-5M) for observations of the slides. In average, 25 optical fields were examined from each group under a magnification of ×40. Measurements were performed with Image J software (1.43 u) in the areas of the hippocampus and the cortex. The results were expressed as area/mm^2 (as previously described[14]), representing the area of DAB positive signal in each photo divided by the total area of the same photo. An additional parameter measured was the Integrated Density, calculating and displaying […]: the product of Area and Mean Gray Value.
# Adnp+/- mice [2] = assay: Object recognition test; type: in vivo, mouse; conditions: male Adnp+/+ mice (Supplemental Fig. S2A, B)
# Procedure: Experiments were performed as previously described[8],[30],[40]. Three–six-month-old male mice were used, and NAP-CB was administered once daily (0.5 µg/5 µl/mouse) for one month. The behavioral assays were then initiated together with a continuous drug application. For detailed description of the object recognition test and the social approach task, please see supplemental materials and methods. In the odor discrimination test, odors were presented on a suspended cotton swab to the test mouse placed into the clean cage with fresh shavings. Each mouse was tested during three consecutive 2-min periods for each odor, with 2-min intervals between presentations. The time that the mouse smelled the swab was recorded (beginning whenever the animal oriented its nostrils toward the cotton swab, within 2 cm or less)[8],[30]. […] Data are expressed as mean ± SEM.
# Object recognition: The test included two consecutive days of habituation (5 min per day) and the experimental day which consisted of the three phases. […] The time spent sniffing/touching each object was measured. Mouse movement and exploratory behavior were tracked and recorded using the EthoVision XT video tracking system and software (Noldus Inc. Leesburg, VA). […]
# [3] = tested on: hippocampus of Adnp+/- mice; assay: Diffusion tensor imaging (DTI) MRI of chronically treated brains; type: in vivo, mouse
# Description: Seven–eight-month-old male mice underwent MRI on a 7.0 T/30 spectrometer (Bruker, Rheinstetten, Germany) using a volume coil for excitation and a rat quadrature coil for acquisition. The MRI protocol used here was the DTI.
# DTI was obtained using a diffusion-weighted (DW) spin-echo echo-planar-imaging (EPI) pulse sequence with the following parameters: TR/TE = 4000/25 ms, Δ/δ = 10/4.5 ms, 4 EPI segments and 32 non-collinear gradient directions with a single b value (1000 sec/mm^2) and two images with b value of 0 sec/mm^2 (referred to as b0). Geometrical parameters were: 24 slices of 0.5 mm thickness, matrix size of 128 × 128 and FOV of […]). The imaging protocol was repeated three times for signal averaging and to compensate for acquisition where significant head motion was observed. Image analysis included DTI analysis of the DW-EPI images to produce the mean diffusivity (MD) and fractional anisotropy (FA) indexed maps following a two-way ANOVA with Tukey post-hoc test.
# [4] = tested on: Slc17a7 gene encoding VGLUT1; assay: Gene expression analysis (quantitative RT-PCR); type: in vivo, mouse
# Procedure: Hippocampal and cerebral cortical RNA of mouse that were 7.5-month-old were extracted using TRI Reagent® (T9424, Sigma-Aldrich, MO, USA). A volume of 1 μg RNA/sample was then subjected to reverse transcription (RT) using qScript cDNA Synthesis Kit (Quanta Biosciences, Gaithersburg, MD, USA). Further Real-time PCR analysis was performed using PerfeCta^TM SYBR® Green FastMix^TM, Low ROX^TM (Cat. No. 95074–012, Quanta Biosciences, Gaithersburg, MD, USA) and the QuantStudio 12 K Flex Real-Time PCR System (Thermo Fisher Scientific, Waltham, MA, USA). RNA expression levels were determined using specific mouse primers: Slc17a7 gene encoding VGLUT1, sense 5′-[…]-3′, anti-sense 5′-[…]-3′. Hypoxanthine-guanine phosphoribosyltransferase (Hprt) was selected as a stable reference gene with appropriate primers for mouse, sense 5′-[…]-3′, anti-sense 5′-[…]-3′. Results are presented as 2^-ΔCT[42].
# Adnp+/- mice [5] = assay: Hanging wire test; type: in vivo, mouse; conditions: significant vs vehicle
# Procedure: as §1
# Adnp+/- mice [6] = assay: Social approach task (social recognition and social memory); type: in vivo, mouse
# Procedure: Experiments were performed as previously described[8],[30],[40]. Three–six-month-old male mice were used, and NAP-CB was administered once daily (0.5 µg/5 µl/mouse) for one month. The behavioral assays were then initiated together with a continuous drug application. For detailed description of the object recognition test and the social approach task, please see supplemental materials and methods. In the odor discrimination test, odors were presented on a suspended cotton swab to the test mouse placed into the clean cage with fresh shavings. Each mouse was tested during three consecutive 2-min periods for each odor, with 2-min intervals between presentations. The time that the mouse smelled the swab was recorded (beginning whenever the animal oriented its nostrils toward the cotton swab, within 2 cm or less)[8],[30]. The hanging wire test measuring the strength of the mouse paws by using the latency to fall off an inverted cage lid (placed 50 cm above the surface) onto a soft bedding (maximum time 90 sec), was performed as previously described[5],[40]. Data are expressed as mean ± SEM.
# Social approach: A plexiglas box was divided into three adjacent chambers, each 20 cm (length) × 40.5 cm (width) × 22 cm (height), separated by two removable doors. Steel wire pencil cups (10.16 cm (diameter), 10.8 cm (height)), www.kitchen-plus.com, were used as both containment for the target mice and as inanimate objects (weights prevented the mice from overturning the cups). […] The next day, each subject mouse was tested in an experiment with three phases, each 10-min long (measured with a simple timer): I and II, the habituation phases (ensuring no bias), and III, the experimental phase. […] Mouse movement and exploratory behavior were tracked and recorded using the EthoVision XT video tracking system and software (Noldus Inc. Leesburg, VA). The discrimination capacity (social memory) was analyzed using the formula: D2 = (b-a)/(b+a), where ‘a’ designated the time of exploration of the familiar mouse and 'b' designated the time of exploration of the novel mouse.
# patients = conditions: cited from earlier work
# Description: Together, these studies attest to preclinical efficacy, holding a promise for clinical effectiveness. […] Nevertheless, in a study performed in severely affected individuals suffering from progressive supranuclear palsy (PSP), belonging to the family of rapidly progressing frontotemporal neurodegener ...
# Adnp deficiency in mice = tested on: Adnp deficiency in mice; design: method as in PMID 26782054; conditions: cited from earlier work
substance,measurement,setting,value
NAPVSIPQ,total odor sniffing time (AUC),"Adnp+/- mice [1]; female Adnp+/- mice, NAP vs CB vehicle, p < 0.05",significantly reduced
same,"odor discrimination ability (novel vs. familiar odor), differences between experimental groups",Adnp+/- mice [1]; females (Supplemental Fig. S2E),no significant differences
same,total time spent with the different odors (AUC),"Adnp+/- mice [1]; male Adnp+/- mice, NAP vs CB vehicle, p < 0.05",significantly increased
same,"odor discrimination ability (novel vs. familiar odor), differences between experimental groups",Adnp+/- mice [1]; males,no significant differences were observed between experimental groups
same,"VGLUT1 protein, intensity (Integrated Density), cortex",VGLUT1,trend of improvement
same,"VGLUT1 protein, area counting (area/mm^2), hippocampus","VGLUT1; five animals per group, technical replicates, p < 0.001 vs CB",full protection
same,"VGLUT1 protein, area counting (area/mm^2), cerebral cortex","VGLUT1; five animals per group, technical replicates, p < 0.05 vs CB",full protection
same,"VGLUT1 protein, intensity (Integrated Density), hippocampus",VGLUT1; p < 0.001 vs CB,significant
same,"object recognition, relative discrimination, short and long retention choice phases, NAP- vs CB-treated",Adnp+/- mice [2],no significant differences
same,"hippocampal mean diffusivity (MD), NAP- vs CB-treated",[3]; male Adnp+/+ mice (Supplemental Fig. S3A),no significant differences in MD
same,hippocampal fractional anisotropy (FA),[3]; male Adnp+/+ mice (Supplemental Fig. S3B),not affected
same,"hippocampal mean diffusivity (MD), effect on increase in Adnp+/-","[3]; male Adnp+/- mice, 7-8 months old, -1.84 mm from Bregma, n = 4-6 per group","although insignificant, was slightly reduced"
same,cerebral cortex VGLUT1 expression (reduced in Adnp+/-),"[4]; female Adnp+/- mice, n = 3-4 per group (Supplemental Fig. S4B)",no effect
same,hippocampal VGLUT1 gene expression,"[4]; females, n = 3-4 per group (Supplemental Fig. S4A)",not affected
same,"VGLUT1 transcript, cerebral cortex","[4]; male Adnp+/- mice, 2^-ΔCT normalized to Hprt, n = 4 per group","small, albeit significant decrease"
same,"Slc17a7 (VGLUT1) gene expression, hippocampus (decrease in Adnp+/-)","[4]; male Adnp+/- mice, 7.5-month-old, 2^-ΔCT normalized to Hprt, n = 4 per group",completely reversed
same,"hanging wire test, latency to fall",Adnp+/- mice [5]; female Adnp+/- mice (Supplemental Fig. S2F),ameliorating this behavior
same,"hanging wire test, latency to fall","Adnp+/- mice [5]; male Adnp+/- mice, maximum time 90 sec",amelioration
same,"social recognition, sniffing time mouse vs cup","Adnp+/- mice [6]; NAP-treated Adnp+/- male mice, p < 0.001 vs. cup",significant differences between sniffing time of the cup (c) and mouse (M)
same,"social memory (D2, novel vs familiar mouse)","Adnp+/- mice [6]; female Adnp+/- mice, n = 3-4 per group, p < 0.001 vs vehicle (Supplemental Fig. S2D)",improved social memory
same,"social recognition, preference mouse vs object","Adnp+/- mice [6]; females (Supplemental Fig. S2C), n = 3-4 per group",significant preference to mice rather than objects
same,cognitive scores,patients; amnestic mild cognitive impairment patients,increase in cognitive scores
same,functional activities of daily living,patients; schizophrenia patients,protection of functional activities of daily living
same,efficacy in progressive supranuclear palsy (PSP),patients; severely affected individuals suffering from PSP,did not show efficacy
SKIP,impaired axonal transport,Adnp deficiency in mice,ameliorated

# From publication PMC6341082 (Translational Psychiatry, 2019)
